Assay results taken from ChEMBL document CHEMBL1201862, “PubChem BioAssay data set” (2004).
Activity calls are given as the source filed them.

Tests used:
[1] = HEK293 cell cytotoxicity, dose response, cytotoxicity control, ATP luminescence, dry powder, Set6 (AID 743142); type: functional, cell-based
[2] = A549 cell cytotoxicity, dose response, cytotoxicity control, CellTiter-Glo luminescence, dry powder, set 3 (AID 743146); type: functional, cell-based
[3] = P. falciparum ATP4 D1247Y mutant growth inhibitors, dose response, NITD609-resistant line, SYBR Green, dry powder (AID 1159571); type: functional, cell-based;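 note: parasites synchronized at ring stage by sorbitol before testing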
[4] = P. falciparum 3D7-ScDHODH growth inhibitors, dose response, SYBR Green, dry powder samples (AID 1159570); type: functional, cell-based;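 note: parasite growth measured after 72 hours of compound exposure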
[5] = A549 cell cytotoxicity, dose response, cytotoxicity control, cherry-picks, 26 µM top dose (AID 1053119); type: functional, cell-based
[6] = HepG2 cell cytotoxicity, dose response, cytotoxicity control, cherry-picks, set 5 (AID 1053118); type: functional, cell-based
[7] = HEK293 cell cytotoxicity, dose response, cytotoxicity control, cherry-picks, set 5 (AID 1053117); type: functional, cell-based
[8] = HepG2 cell cytotoxicity, dose response, cytotoxicity control, plate reader, dry powder samples (AID 1159569); type: functional, cell-based;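 note: inhibitor potency with signal falling toward the positive control level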
[9] = P. falciparum Dd2 growth inhibitors, dose response, SYBR Green, dry powder samples (AID 1159566); type: functional, cell-based;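 note: potency for growth inhibition with lower SYBR green DNA signal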
[10] = P. falciparum Dd2 growth inhibitors, dose response, SYBR Green, cherry-picked samples (AID 1159567); type: functional, cell-based
[11] = inhibitors of intracellular T. cruzi replication, confirmation, NIH3T3 host cells, beta-gal luminescence (AID 2044); type: functional, cell-based;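 note: intracellular parasites grown in NIH/3T3 mouse fibroblasts as host cells; luminescent beta-galactosidase reporter signal from transgenic T. cruzi replicating inside host cells; inhibitors lower the luminescence signal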
[12] = NIH-3T3 fibroblast cytotoxicity, dose response, cytotoxicity control, cell-based, fluorescence, Alamar Blue, secondary assay (AID 2327); type: functional;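 note: NIH-3T3 mouse fibroblasts cultured with fluconazole at 8 µg/mL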
[13] = C. albicans growth with fluconazole, confirmation, fluorescence, retest (AID 2467); type: functional, cell-based
[14] = cytotoxicity toward NIH3T3 fibroblasts, dose response, counter-screen, cell-based, ATP luminescence, mouse fibroblasts (AID 2010); type: functional;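 note: cells exposed to compound for about 90 hours before reading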
[15] = ZM109 Env clade C HIV-1 fusion inhibitors, dose response, HeLa effector, CEM target cells, luciferase, cherry-pick (AID 652058); type: functional, cell-based
[16] = inhibitors of HIV Env-driven cell fusion, dose response, cherry-pick (AID 652057); type: functional, cell-based
[17] = target: T1, Galanin receptor type 3 (Homo sapiens, UniProt O60755); test: Fluorescence-based cell-based primary high throughput dose response assay to identify antagonists of the Galanin Receptor 3 (GalR3).; type: functional
T1 sequence (O60755 whole entry): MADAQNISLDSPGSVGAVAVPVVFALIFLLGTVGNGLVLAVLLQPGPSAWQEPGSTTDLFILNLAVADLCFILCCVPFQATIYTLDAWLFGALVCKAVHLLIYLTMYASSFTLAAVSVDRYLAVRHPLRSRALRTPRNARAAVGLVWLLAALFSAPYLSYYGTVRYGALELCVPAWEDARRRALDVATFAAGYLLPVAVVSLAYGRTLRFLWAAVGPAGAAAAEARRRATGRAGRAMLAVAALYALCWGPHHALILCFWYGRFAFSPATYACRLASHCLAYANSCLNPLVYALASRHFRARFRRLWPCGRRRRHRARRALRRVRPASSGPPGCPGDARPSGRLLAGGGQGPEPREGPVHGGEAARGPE

[18] = inhibitors of clade B AD8 Env fusion, dose response, cell-based, cherry-pick (AID 652062); type: functional;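 note: luciferase signal from cell-cell fusion driven by HIV-1 clade B AD8 Env; potency is for inhibitors of fusion seen as a drop in luminescence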
[19] = cells
[20] = cells; type: functional, cell-based; conditions: HEK-CNG
[21] = CEM21 lymphoblast cell cytotoxicity, dose response, cytotoxicity control for viral fusion inhibitor project, CellTiter-Glo luminescence, cherry-picked (AID 652042); type: functional, cell-based;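 note: potency for signal decrease meaning cytotoxicity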
[22] = target: T2, Calpain-2 catalytic subunit (Sus scrofa, UniProt P43367); test: pig calpain II inhibitor potency, dose response, biochemical, fluorogenic peptide substrate (AID 1420); type: functional
T2 sequence (P43367 whole entry): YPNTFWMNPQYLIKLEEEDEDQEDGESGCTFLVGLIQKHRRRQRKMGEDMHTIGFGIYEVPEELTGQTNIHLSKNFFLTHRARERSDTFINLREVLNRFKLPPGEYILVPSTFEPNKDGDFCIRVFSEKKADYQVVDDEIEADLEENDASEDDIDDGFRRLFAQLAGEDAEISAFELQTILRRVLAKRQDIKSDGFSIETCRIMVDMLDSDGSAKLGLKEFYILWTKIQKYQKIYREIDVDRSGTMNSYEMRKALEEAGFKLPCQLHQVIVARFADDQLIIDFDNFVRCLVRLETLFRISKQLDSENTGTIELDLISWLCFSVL

[23] = target: Paired box protein Pax-8 (Homo sapiens, UniProt Q06710); test: inhibitors of PAX8-driven TPO luciferase reporter, dose response, RMG-I cells, cherry-pick (AID 687027); type: functional, cell-based;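 note: luciferase reporter driven by Pax8 target thyroperoxidase promoter measured by SteadyGlo luminescence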
Paired box protein Pax-8, sequence (Q06710 whole entry, the tested form may be a part): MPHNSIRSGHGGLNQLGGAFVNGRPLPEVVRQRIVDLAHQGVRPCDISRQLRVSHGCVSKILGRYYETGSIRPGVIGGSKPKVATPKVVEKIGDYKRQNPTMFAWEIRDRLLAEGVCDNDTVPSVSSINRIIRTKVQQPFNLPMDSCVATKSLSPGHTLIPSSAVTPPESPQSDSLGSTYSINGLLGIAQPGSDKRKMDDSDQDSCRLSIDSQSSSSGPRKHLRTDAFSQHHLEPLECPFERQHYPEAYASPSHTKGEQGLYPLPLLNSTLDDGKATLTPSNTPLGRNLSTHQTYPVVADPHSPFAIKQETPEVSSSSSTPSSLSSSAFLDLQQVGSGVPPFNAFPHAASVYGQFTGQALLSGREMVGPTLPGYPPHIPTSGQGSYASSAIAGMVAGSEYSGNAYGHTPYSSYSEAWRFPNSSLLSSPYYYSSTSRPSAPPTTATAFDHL

[24] = target: Potassium channel subfamily K member 3 (Rattus norvegicus, UniProt O54912); test: SAR analysis for the identification of selective inhibitors of the two-pore domain potassium channel TASK1(KCNK3):Automated Electrophysiology.; type: functional
Potassium channel subfamily K member 3, sequence (O54912 whole entry, the tested form may be a part): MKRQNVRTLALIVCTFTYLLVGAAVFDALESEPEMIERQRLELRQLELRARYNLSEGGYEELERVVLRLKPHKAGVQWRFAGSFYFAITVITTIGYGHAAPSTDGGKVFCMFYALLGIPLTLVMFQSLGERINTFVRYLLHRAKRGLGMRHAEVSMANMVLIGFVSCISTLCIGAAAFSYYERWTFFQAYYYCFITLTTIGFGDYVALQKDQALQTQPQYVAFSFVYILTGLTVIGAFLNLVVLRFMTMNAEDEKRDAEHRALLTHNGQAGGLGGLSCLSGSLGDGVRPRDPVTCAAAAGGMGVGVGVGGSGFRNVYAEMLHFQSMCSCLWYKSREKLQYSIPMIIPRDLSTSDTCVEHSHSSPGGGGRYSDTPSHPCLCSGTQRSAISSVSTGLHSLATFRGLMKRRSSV

[25] = target: Potassium channel subfamily K member 9 (Homo sapiens, UniProt Q9NPC2); test: TASK3 (KCNK9) channel inhibitors, thallium flux, SAR follow-up, selectivity assay for TASK1 inhibitor project, cell-based, FluxOR thallium flux, concentration-response (AID 652211); type: functional;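 note: potency is for inhibitors of the channel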
Potassium channel subfamily K member 9, sequence (Q9NPC2 whole entry): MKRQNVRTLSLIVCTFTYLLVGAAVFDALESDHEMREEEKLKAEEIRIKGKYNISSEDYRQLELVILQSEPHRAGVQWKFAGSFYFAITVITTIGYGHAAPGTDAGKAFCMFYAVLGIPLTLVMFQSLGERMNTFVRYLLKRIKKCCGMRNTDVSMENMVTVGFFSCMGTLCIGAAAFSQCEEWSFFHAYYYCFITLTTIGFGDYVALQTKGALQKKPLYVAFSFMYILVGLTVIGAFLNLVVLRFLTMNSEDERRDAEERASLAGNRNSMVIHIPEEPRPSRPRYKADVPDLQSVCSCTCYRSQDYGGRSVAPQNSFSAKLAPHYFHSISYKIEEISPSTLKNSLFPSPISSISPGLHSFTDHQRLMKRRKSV

[26] = target: NAD-dependent protein deacylase sirtuin-5, mitochondrial (Homo sapiens, UniProt Q9NXA8); test: SIRT5 desuccinylase inhibitors, dose response, biochemical, fluorescence imaging, cherry-pick, set 5 (AID 720591);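 note: desuccinylation of succinyl peptide AMC substrate read as fluorescence after trypsin release; potency of inhibitors that lower fluorescence and may act on trypsin instead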
NAD-dependent protein deacylase sirtuin-5, mitochondrial, sequence (Q9NXA8 whole entry): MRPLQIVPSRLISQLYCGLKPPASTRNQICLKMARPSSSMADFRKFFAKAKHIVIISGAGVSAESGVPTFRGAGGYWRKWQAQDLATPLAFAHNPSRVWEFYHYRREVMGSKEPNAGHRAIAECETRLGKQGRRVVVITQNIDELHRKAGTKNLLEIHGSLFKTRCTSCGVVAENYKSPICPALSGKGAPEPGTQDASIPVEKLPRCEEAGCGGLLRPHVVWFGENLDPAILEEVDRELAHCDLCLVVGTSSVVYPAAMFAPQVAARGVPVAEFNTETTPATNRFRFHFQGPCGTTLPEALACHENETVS

[27] = non-specific cell cytotoxicity, dose response, cytotoxicity control for PAX8 inhibitor project, plate reader, dry powder samples (AID 743021); type: functional, cell-based
[28] = target: T3, Trace amine-associated receptor 1 (Homo sapiens, UniProt Q96RJ0); test: Counterscreen for antagonists of the human trace amine associated receptor 1 (hTAAR1): Fluorescence-based cell-based high throughput dose response assay to identify TAAR1 Agonists.; type: functional
T3 sequence (Q96RJ0 whole entry): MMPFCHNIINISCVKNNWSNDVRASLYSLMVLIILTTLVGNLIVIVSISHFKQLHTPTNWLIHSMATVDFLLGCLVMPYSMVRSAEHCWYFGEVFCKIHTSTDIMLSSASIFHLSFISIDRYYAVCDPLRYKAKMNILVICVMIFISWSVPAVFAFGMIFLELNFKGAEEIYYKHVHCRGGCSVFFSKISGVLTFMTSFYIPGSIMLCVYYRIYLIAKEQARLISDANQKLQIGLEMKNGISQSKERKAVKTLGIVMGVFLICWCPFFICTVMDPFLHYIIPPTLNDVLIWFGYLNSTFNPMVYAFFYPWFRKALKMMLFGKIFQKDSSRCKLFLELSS

[29] = Counterscreen for antagonists of the human trace amine associated receptor 1 (hTAAR1): Fluorescence-based cell-based high throughput dose response assay to identify nonselective Ga16 antagonists.; type: functional
[30] = Counterscreen for […] of the human trace amine associated receptor 1 (TAAR1): Fluorescence-based cell-based high throughput dose response assay to identify nonselective Ga16 agonists.; type: functional
[31] = target: T3, Trace amine-associated receptor 1; test: Fluorescence-based cell-based high throughput dose response assay to identify antagonists of the human trace amine associated receptor 1 (TAAR1).; type: functional
[32] = target: Induced myeloid leukemia cell differentiation protein Mcl-1 (Homo sapiens, UniProt Q07820); type: functional
Induced myeloid leukemia cell differentiation protein Mcl-1, sequence (Q07820 whole entry): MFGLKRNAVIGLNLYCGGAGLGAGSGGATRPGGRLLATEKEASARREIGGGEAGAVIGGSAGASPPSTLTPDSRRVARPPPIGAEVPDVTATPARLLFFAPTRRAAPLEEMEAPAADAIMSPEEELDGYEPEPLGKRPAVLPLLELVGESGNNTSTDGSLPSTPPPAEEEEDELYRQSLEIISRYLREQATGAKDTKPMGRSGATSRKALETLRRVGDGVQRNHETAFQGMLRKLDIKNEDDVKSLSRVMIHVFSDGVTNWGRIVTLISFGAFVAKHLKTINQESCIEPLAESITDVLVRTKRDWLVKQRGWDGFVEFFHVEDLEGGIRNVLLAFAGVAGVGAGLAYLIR

[33] = human group III sPLA2 inhibitors, dose response, biochemical, QFRET, IC50 (AID 743457);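 note: green fluorescence rise as the enzyme cleaves BODIPY PC-A2 in liposomes; potency for inhibition of the enzyme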
[34] = system: Streptococcus sp. 'group A'; test: growth inhibition of control SK(-) GAS strain, dose response, counter-screen for streptokinase expression inhibitor project, luminescence, kanamycin, BacTiterGlo, confirmation (AID 1900); type: functional, organism-based
[35] = system: Streptococcus; test: Group A Streptococcus viability loss, dose response, counter-screen for streptokinase expression inhibitor project, luminescence, BacTiterGlo (AID 1915); type: functional, organism-based;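 note: potency for reduction of bacterial viability or growth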
[36] = target: T4, High affinity choline transporter 1 (Homo sapiens, UniProt Q9GZV3); test: CHT choline uptake inhibitors, dose response, cell-based, HEK-293 hCHT, [3H]-choline uptake (AID 652177); type: functional
T4 sequence (Q9GZV3 whole entry): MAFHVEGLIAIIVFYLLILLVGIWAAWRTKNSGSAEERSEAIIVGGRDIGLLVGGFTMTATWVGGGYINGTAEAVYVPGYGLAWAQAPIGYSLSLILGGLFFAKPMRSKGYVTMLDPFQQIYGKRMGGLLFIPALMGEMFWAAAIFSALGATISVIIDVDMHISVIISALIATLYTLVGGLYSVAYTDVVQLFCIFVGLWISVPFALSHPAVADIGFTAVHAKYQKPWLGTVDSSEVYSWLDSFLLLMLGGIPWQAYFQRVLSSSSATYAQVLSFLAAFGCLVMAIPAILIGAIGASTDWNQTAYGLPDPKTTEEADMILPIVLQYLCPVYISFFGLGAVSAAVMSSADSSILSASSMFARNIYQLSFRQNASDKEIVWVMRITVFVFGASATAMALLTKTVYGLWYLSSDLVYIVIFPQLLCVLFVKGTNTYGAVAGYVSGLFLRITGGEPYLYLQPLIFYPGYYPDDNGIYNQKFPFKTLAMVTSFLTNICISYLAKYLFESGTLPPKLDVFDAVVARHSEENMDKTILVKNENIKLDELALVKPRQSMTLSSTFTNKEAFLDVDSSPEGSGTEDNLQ

[37] = system: A549; test: A549 cell toxicity, dose response, cytotoxicity control, plate reader, cherry-pick samples (AID 687028); type: functional, cell-based; conditions: Homo sapiens
[38] = system: Vero; test: Vero cell toxicity, dose response, cytotoxicity control, plate reader, cherry-pick samples (AID 687020); type: functional, cell-based; conditions: Chlorocebus sabaeus
[39] = system: BHK-21; test: BHK-21 cell toxicity, dose response, cytotoxicity control, plate reader, cherry-pick samples (AID 687030); type: functional, cell-based; conditions: Mesocricetus auratus
[40] = Luminescence Cell-Based Dose Retest to Confirm Inhibitors of Cancer Stem Cells. [Related pubchem assays (depositor defined):AID2717, AID2721]; type: functional; conditions: Homo sapiens
[41] = HepG2 cell cytotoxicity, dose response, cytotoxicity control, ATP luminescence, cherry-pick, activator set 2 (AID 1053143); type: functional, cell-based
[42] = target: T5, Streptokinase A (Streptococcus pyogenes serotype M1, UniProt P10520); test: S. pyogenes streptokinase expression inhibitors, potency, dose response, plasminogen activation absorbance, OD405 (AID 1914); type: functional, Streptococcus pyogenes M1 GAS;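 note: secreted streptokinase activity via plasminogen activation per viability signal from cell pellet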
T5 sequence (P10520 whole entry): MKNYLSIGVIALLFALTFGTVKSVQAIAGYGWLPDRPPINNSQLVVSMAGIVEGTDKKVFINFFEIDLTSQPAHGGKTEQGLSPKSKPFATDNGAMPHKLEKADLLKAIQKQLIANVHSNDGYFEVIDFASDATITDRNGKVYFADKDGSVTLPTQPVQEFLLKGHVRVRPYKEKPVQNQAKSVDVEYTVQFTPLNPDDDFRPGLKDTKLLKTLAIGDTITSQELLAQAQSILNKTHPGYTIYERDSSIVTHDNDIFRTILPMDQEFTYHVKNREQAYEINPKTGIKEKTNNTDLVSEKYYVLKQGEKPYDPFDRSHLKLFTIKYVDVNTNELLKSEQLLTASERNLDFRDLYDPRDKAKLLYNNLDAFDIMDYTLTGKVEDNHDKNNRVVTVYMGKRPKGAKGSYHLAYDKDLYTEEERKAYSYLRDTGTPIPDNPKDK

[43] = target: Matrix metalloproteinase-14 (Homo sapiens, UniProt P50281); test: Dose Response confirmation of uHTS hits for a small molecule inhibitors of MT1-MMP activation in a fluorescence assay set 1.; type: functional

O=C(CCNC(=O)c1ccc(OC(F)(F)F)cc1)N[C@@H]1CCCc2ccccc21
AC50 [1]: 6.21 µM (active)
AC50 [2]: 26 µM (active)

CO[C@H]1CN(C)C(=O)c2cc(NC(=O)Nc3ccc(C(F)(F)F)cc3)ccc2OC[C@H](C)NC[C@H]1C
AC50 [3]: 2.76 µM (active)
AC50 [4]: 1.37 µM (active)
AC50 [5]: > 52 µM (inactive)
AC50 [6]: > 52 µM (inactive)
AC50 [7]: > 52 µM (inactive)
AC50 [8]: 19.2 µM (active)
AC50 [9]: 1.56 µM (active)
AC50 [10]: 2.49 µM (active)

CCCCCCCn1c2c(c(=N)c3c1CCC3)CCCC2
EC50 [11]: < 0.1 µM (active)
EC50 [12]: > 160 µM (inactive)
EC50 [13]: 2.79 µM (active)
EC50 [14]: > 60 µM (not active)
AC50 [15]: 3.24 µM (active)
AC50 [16]: 3.53 µM (active)
IC50 [17]: > 1.11 µM (active)
AC50 [18]: 2.6 µM (active)
EC50 [19]: 0.006 µM (active)
EC50 [20]: 27.7 µM (inactive)
AC50 [21]: 6.62 µM (active)
IC50 [22]: 16.7 µM (not active)
AC50 [23]: 0.677 µM (active)

CCOc1ccccc1C(=O)Nc1cccc(NC(=O)c2ccccc2C(F)(F)F)c1
IC50 [24]: 0.01 µM (active)
IC50 [25]: 1.04 µM (active)

Cc1noc(C)c1NC(=O)N(C)C[C@@H]1Oc2cc(Br)ccc2S(=O)(=O)N([C@@H](C)CO)C[C@H]1C
AC50 [26]: > 30 µM (inactive)

COc1ccc(S(=O)(=O)Nc2ccc3c(c2)C(=O)N([C@@H](C)CO)C[C@@H](C)[C@H](CN(C)Cc2ccc(C(F)(F)F)cc2)OCCCC[C@H](C)O3)cc1
AC50 [23]: 10.8 µM (active)
AC50 [27]: 45.4 µM (active)

NC(=O)COc1cccc(/C=N/NC(=O)c2ccc(-n3cccc3)cc2)c1
EC50 [28]: > 29.9 µM (inactive)
IC50 [29]: > 29.9 µM (inactive)
EC50 [30]: > 29.9 µM (inactive)
IC50 [31]: > 1.11 µM (active)

Cc1cccc(C(=O)NC(=S)NNC(=O)c2ccc(Cl)cc2)c1
IC50 [32]: 25.8 µM (not active)
IC50 [33]: 21.9 µM (inactive)
EC50 [34]: 0.362 µM (active)
EC50 [35]: 1.09 µM (active)

COc1ccc(C(=O)NC(C)Cc2ccccn2)cc1OC1CCN(C(C)C)CC1 (stereo unspecified)
IC50 [36]: 4.6 µM (active)

CC1CCCN(CCCOc2ccc(Br)cc2Cl)C1 (stereo unspecified)
AC50 [37]: 27.2 µM (active)
AC50 [38]: 25.2 µM (active)
AC50 [39]: 38.8 µM (active)
AC50 [40]: 8.98 µM (active)

O=C(Nc1ccc(F)cc1)c1ccc2nsnc2c1
AC50 [41]: > 52 µM (inactive)

N#CC(C#N)=NNc1ccc([N+](=O)[O-])cc1
EC50 [34]: 3.82 µM (active)
EC50 [35]: 9.99 µM (active)
EC50 [42]: > 150 µM (not active)
IC50 [43]: 32.3 µM (inactive)
